Values belong to the molecule of their own block, whether it stands above or below them.
What was measured:
[1] = Release kinetics of leuprolide acetate from PLGA microparticles (UV absorption of supernatant); type: physicochemical
Procedure: The release kinetics of leuprolide acetate from the PLGA microparticles prepared as described herein was determined and the results are shown in FIG. 1. Concentration of drug in the supernatant was measured by ultraviolet absorption. […] Initial burst release occurs due to the fast dissolution of peptide located at the microparticle surface followed by a time lag of 4-5 days. […] During the middle portion of the curve, peptide release occurs at a near constant rate.
FIG. 2 compares the release curve of FIG. 1 for 10% RG 502H with a published release curve for leuprolide acetate from microparticles formed by conventional oil-in-water emulsion with poly(vinyl alcohol) as emulsifier (D'Souza et al., 2005, AAPS PHARM. Sci. Tech. 6(4), E553).

[2] = Encapsulation efficiency of drug in PLA/PLGA microparticles prepared with hydroxyapatite gel (UV absorption); type: physicochemical; details: for pH of aqueous suspension giving best encapsulation efficiency: hydroxyapatite gel suspension, PLA/PLGA polymers
Procedure: Leuprolide acetate and poly(lactic acid-co-glycolic acid) (PLGA) RG502H or PLA R202H were dissolved in a 24/76 (v/v) methanol/dichloromethane mixture at a concentration of 20% polymer and 10% leuprolide (w/v) to prepare the polymer-drug solution. An aqueous suspension of hyroxyapatite was prepared by dissolving 6 g of CaO in 400 ml water. Then phosphoric acid was added to adjust the pH of the aqueous suspension to between 9.0 and 10.0. Hydroxyapatite gel was formed in situ in the aqueous suspension under these conditions by the reaction 10 CaO+6 H3PO4=Ca10(PO4)6(OH)2+8 H2O. The drug/polymer solution (2 or 3 ml) was dispersed into the aqueous suspension medium. The dispersion was initially homogenized by a high-shear mixer at 5,000 or more rpm for 5 minutes. The solvents were then evaporated by stirring at 600 rpm for 1 hour or longer. Then concentrated HCl was added slowly until the hydroxyapatite dissolved and the suspension cleared. Hydroxyapatite is dissolved by the reaction Ca10(PO4)6(OH)2+20 HCl=10 CaCl2+6 H3PO4+2 H2O. The solidified microparticles were recovered by centrifugation and filtration.
Encapsulation efficiency refers to the mass of drug recovered in microparticles divided by the starting mass of drug in the polymer-drug phase. To quantify drug in microparticles, the microparticles were first dissolved in an ethanol/dichloroethane (28/72 v/v) mixture. The drug content of the solution was then measured by ultraviolet absorption.
In other experiments, the pH of the suspending medium was varied. […] Small anionic and cationic small molecule drugs were also tested. […] Verapamil HCl and nicardipine HCl were the small-molecule amine-containing drugs tested. Piroxicam, […], and salicylic acid were the small molecule anionic drugs tested.

Release curve compared with published curve for conventional o/w emulsion (poly(vinyl alcohol)) microparticles ([1]; 10% RG 502H, FIG. 2, versus D'Souza et al. 2005): nearly identical
Release profile (shape) ([1]; PLGA microparticles, FIG. 1): typical tri-phase
Time lag after initial burst release ([1]; PLGA microparticles, FIG. 1): 4 to 5 days
Encapsulation efficiency ([2]; pH of the suspending medium 7.0): 90%
Encapsulation efficiency ([2]; pH of the suspending medium pH 9.0 to pH 10.0, hydroxyapatite gel): ≥ 95%
SMILES: CCNC(=O)[C@@H]1CCCN1C(=O)[C@H](CCCNC(=N)N)NC(=O)[C@H](CC(C)C)NC(=O)[C@@H](CC(C)C)NC(=O)[C@H](Cc1ccc(O)cc1)NC(=O)[C@H](CO)NC(=O)[C@H](Cc1c[nH]c2ccccc12)NC(=O)[C@H](Cc1c[nH]cn1)NC(=O)[C@@H]1CCC(=O)N1 [leuprolide acetate, Leuprolide acetate]

pH of aqueous suspension giving best encapsulation efficiency [2]: ~5.0
SMILES: COc1ccc2cc([C@H](C)C(=O)O)ccc2c1 [naproxen acid]

pH of aqueous suspension giving best encapsulation efficiency [2]: ~5.0
SMILES: CN1C(C(=O)Nc2ccccn2)=C(O)c2ccccc2S1(=O)=O [piroxicam]

pH of aqueous suspension giving best encapsulation efficiency [2]: ~5.0
SMILES: O=C(O)c1ccccc1O [salicylic acid]

Reference: patent US8034382B2, “Preparation method for biodegradable micro-particles containing drugs” (The Board of Trustees of the University of Arkansas, priority 2008, dated 2011)
